Key:
Type in all cases: cell-based
[1] = tested on: cancer cells; assay: Cell growth assay in combination with BSO
Description: Further, we tested whether the inhibition of GR by BSO will have additive effect with 1d*HCl. If 1d*HCl mechanism of action includes inhibition of GR, BSO will not have an additive effect. We used a range of concentrations of 1d*HCl and BSO in cell growth assays.
Next, we tested whether the prevention of oxidative stress by NAC will affect the growth suppression by the combination of 1d*HCl and BSO. In the presence of NAC we observed the additive effect of 1d*HCl with 50 µM BSO only at twice higher dose of 1d*HCl - 10 µM.

[2] = tested on: MCF7; assay: Growth suppression, cancer cell line panel (resazurin); details: MCF7 breast, 48 hours
Description: (§1) Breast, colon, ovarian, cervical, liver and lung carcinoma cell lines were grown in DMEM supplemented with 10% FBS, and antibiotics were cultured at 37 °C and 5% CO2. Osteosarcoma, melanoma, lymphoma, neuroblastoma and leukemia cell lines were cultured in RPMI 1640 with 10% FBS and antibiotics. An oxygen concentration of 0.3% was obtained by flushing a sealed box containing the cells with premixed gas composed of 95% nitrogen (N2) and 5% CO2 (AGA AB, Sweden). To obtain an oxygen concentration of 0.05%, the cells were flushed with the premixed gas continuously throughout the experiment.
(§2) Cells were grown in 96-well plates at a density of 3000 cells per well with or without doxycycline and treated with compounds. After 48 hours of incubation the proliferative cell reagent resazurin (Thermo Fisher Scientific) was added to the cells. The degree of resazurin reduction, which reflects cell viability, was measured by microplate reader by monitoring the absorbance at 570 nm and 600 nm, according to the manufacturer.
(§3) Growth suppression by the soluble compound 1d*HCl in a panel of 27 cancer cell lines. The panel of cancer cell lines, including carcinomas of breast (MDA-MB231, SKBR3, T47D, MCF7; BT549, BT20, MDA-MB468), colon, (SW480, RKO, HT29, HCT116) ovarian (OVCAR3, OVCAR4, OVCAR8), cervical (SW756, C33A), liver (HEPG2) and lung (H23), osteosarcoma (SJSA and U2OS), melanoma (ME180), lymphoma (Raji, HDLM2), neuroblastoma (SKNAS, IMR32) and leukemia (NB4, K562) were treated with increasing concentrations of 1d*HCl: 0.4; 0.8; 1.6; 3.2; 6.4; 12.8; 25.6 µM in 96-well plates. After 48 hours of incubation the proliferative cell reagent resazurin was added to the cells. The degree of resazurin reduction, which reflects cell viability, was measured by microplate reader by monitoring the absorbance at 570 nm and 600 nm, according to the manufacturer, and the IC50 and AUC (area under curve) were determined (Table 2). As could be seen in Table 2, 1d*HCl suppressed the growth of cancer cell lines of a different origin, including carcinomas, osteosarcomas, melanoma, lymphoma, leukemia and neuroblastoma. These findings open up a possibility of the application of the present invention in anti-cancer therapy in a broad range of tumor types. Table 2: a) Breast cancer

[3] = tested on: SKBR3; assay: as above; details: SKBR3 breast, 48 hours
Description: as §1, §2, §3

[4] = tested on: OVCAR8; assay: as above; details: OVCAR8 ovarian, 48 hours
Description: as §1, §2, §3

[5] = tested on: IMR32; assay: as above; details: IMR32 neuroblastoma, 48 hours
Description: as §1, §2, §3

[6] = tested on: RKO; assay: as above; details: RKO colon, 48 hours
Description: as §1, §2, §3

[7] = target: T1, TrxRl covalent dimers (Homo sapiens, UniProt Q16881); assay: Detection of TrxR dimers by Western blot; details: HCT116 and MCF7 cells, 5 µM, detected as soon as 2h after treatment
T1 construct: endogenous in cells; host or cells: MCF7 (A37, A39); HCT116 (A39)
T1 sequence (Q16881 151-649): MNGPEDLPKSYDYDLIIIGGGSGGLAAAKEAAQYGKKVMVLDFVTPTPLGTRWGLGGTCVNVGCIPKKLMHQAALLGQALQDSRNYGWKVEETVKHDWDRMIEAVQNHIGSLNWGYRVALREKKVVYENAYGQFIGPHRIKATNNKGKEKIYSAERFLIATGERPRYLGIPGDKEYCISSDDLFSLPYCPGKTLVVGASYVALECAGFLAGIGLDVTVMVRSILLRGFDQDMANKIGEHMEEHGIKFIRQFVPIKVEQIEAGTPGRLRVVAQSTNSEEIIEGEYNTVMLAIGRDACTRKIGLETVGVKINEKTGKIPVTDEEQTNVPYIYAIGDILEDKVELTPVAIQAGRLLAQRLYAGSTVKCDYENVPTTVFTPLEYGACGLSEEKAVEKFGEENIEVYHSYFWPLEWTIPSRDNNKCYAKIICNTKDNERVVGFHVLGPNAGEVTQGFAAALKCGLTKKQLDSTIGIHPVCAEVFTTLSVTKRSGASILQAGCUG
Description: The extraction of total cell lysates and western blot were performed according to standard procedure. The antibodies used for immunoblotting were: p53 (sc-126, Santa Cruz Biotechnology), γH2AX (#07-164, Millipore), TrxRl 19A1 (AbFrontier). Anti-β-actin monoclonal antibody (Millipore) was used as loading control. The horseradish peroxidase-coupled secondary antibodies (Jackson ImmunoResearch) and SuperSignal™ West Dura Extended Duration Substrate detection system (Thermo Fischer Scientific), and images were visualized using ChemiDoc Imaging System (Bio-Rad).
MCF7 or HCT116 cells were treated in culture with 5 or 10 µM of 1d*HCl (Example 4) in complete medium for 2h or 6h. For each case, duplicate drug treated samples were produced plus duplicate control treatment samples using equal volumes of the drug vehicle dimethyl sulfoxide. Detached cells from each biological replicate were washed, suspended in PBS containing protease inhibitors and cells lysed through freeze thaw cycles in liquid N2, according to the reference protocol. Soluble fraction was separated from precipitated protein by ultracentrifugation at 100000 g for 30 minutes at 4°C and TrxRl dimer formation was analysed using Western blot as described above. […]

Cl.N#Cc1c(-c2cccnc2)[n+]([O-])c2cc(F)c(N3CCOCC3)cc2[n+]1[O-] [1d*HCl, 6-Fluoro-7-(morpholin-4-yl)-3-(pyridin-3-yl)quinoxaline-2-carbonitrile-1,4-dioxide hydrochloride]
effect of combination with BSO on cell growth ([1]; 5 µM 1d*HCl with 50 µM BSO): have an additive effect and completely eradicated cancer cells | dose of 1d*HCl at which additive effect with 50 µM BSO is observed ([1]; in the presence of NAC): 10 µM | IC50 ([2]; Homo sapiens, resazurin): 2540 nM | AUC ([2]; area under curve, 0.4-25.6 µM): 3,64 | IC50 ([3]; Homo sapiens, SK-BR-3, resazurin): 2130 nM | AUC ([3]; area under curve, 0.4-25.6 µM): 3,06 | IC50 ([4]; Homo sapiens, OVCAR-8, resazurin): 2360 nM | AUC ([4]; area under curve, 0.4-25.6 µM): 2,98 | IC50 ([5]; Homo sapiens, IMR-32, resazurin, read-out: ICso): 5150 nM | AUC ([5]; area under curve, 0.4-25.6 µM): 6,40 | IC50 ([6]; Homo sapiens, resazurin): 538 nM | AUC ([6]; area under curve, 0.4-25.6 µM): 0,942 | formation of TrxRl covalent dimers (130 kDa band) [7]: induces the formation of TrxRl covalent dimers
